Test results from patent US20240415124A1, “HERBICIDAL COMPOSITION CONTAINING 3-(2-CHLORO-4-FLUORO-5-(3-METHYL-2,6-DIOXO-4-TRIFLUOROMETHYL-3,6-DIHYDROPYRIMIDIN-1(2H)-YL)PHENYL)-5-METHYL-4,5-DIHYDROISOXAZOLE-5-CARBOXYLIC ACID ETHYL ESTER AND GLUFOSINATE-P AND USE THEREOF” (NANTONG JIANGSHAN AGROCHEMICAL & CHEMICALS CO., LTD., priority 2022, published 2024).

System: Erigeron canadensis
Experiment: Laboratory activity determination test (greenhouse pot test, stem and leaf spray, fresh weight inhibition, Gowing method)
Assay type: in vivo
Conditions: single pesticide
Method: (1) Test objective: Inhibitory effects of 3-(2-chloro-4-fluoro-5-(3-methyl-2,6-dioxo-4-trifluoromethyl-3,6-dihydropyrimidin-1(2H)-yl)phenyl)-5-methyl-4,5-dihydroisoxazole-5-carboxylic acid ethyl ester, glufosinate-P and different mixed compositions of the two pesticides on Erigeron canadensis under potting conditions in a greenhouse are determined, and a combined action of the two pesticides is evaluated. […] After a pesticide liquid was air-dried, a test material was placed in a greenhouse for cultivation. […] A method for evaluating the combined action of the two pesticides after compounding was used with reference to a Gowing method in Pesticides Guidelines for Laboratory Bioactivity Tests: Determining Combined Action of Mixtures.
Fresh weight inhibition rate %=(fresh weight of a control group—fresh weight of a treatment group)/fresh weight of a control group*100.
When E-E0 is greater than −10 and less than 10, an additive effect is achieved. When E-E0 is equal to or less than −10, an antagonistic effect is achieved.

Row | Compound | Measured control efficacy E (%) (dosage 1 g a.i./mu) | Measured control efficacy E (%) (dosage 2 g a.i./mu) | Measured control efficacy E (%) (dosage 3 g a.i./mu) | Measured control efficacy E (%) (dosage 4 g a.i./mu) | Measured control efficacy E (%) (dosage 5 g a.i./mu) | Measured control efficacy E (%) (dosage 8 g a.i./mu) | Measured control efficacy E (%) (dosage 12 g a.i./mu) | Measured control efficacy E (%) (dosage 16 g a.i./mu) | Measured control efficacy E (%) (dosage 20 g a.i./mu) | Measured control efficacy E (%) (dosage 24 g a.i./mu)
1 | CCOC(=O)C1(C)CC(c2cc(-n3c(=O)cc(C(F)(F)F)n(C)c3=O)c(F)cc2Cl)=NO1 (stereo not shown) [3-(2-chloro-4-fluoro-5-(3-methyl-2,6-dioxo-4-trifluoromethyl-3,6-dihydropyrimidin-1(2H)-yl)phenyl)-5-methyl-4,5-dihydroisoxazole-5-carboxylic acid ethyl ester] | 33.82 | 44.46 | 72.89 | 80.22 | 89.09 | – | – | – | – | –
2 | CP(=O)(O)CC[C@H](N)C(=O)O [Glufosinate-P] | – | – | – | – | – | 21.63 | 51.94 | 67.92 | 74.07 | 78.07
